“And” between values parts separate entries of the source, which are not always exact repeats. Identical values can stand only once. Inconclusive results and toxic doses are left out.
System: BDF1 mice, L1210 leukemia sc, survival T/C
Assay: NCI In Vivo Anticancer Drug Screen. Data for tumor model L1210 Leukemia (subcutaneous) in B6D2F1 (BDF1) mice
Details: endpoint: median survival time, higher = longer survival
Method in brief: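 Read-out: T/C ratio, i.e. survival or tumor size in treated mice over that in vehicle-treated controls, from mice bearing transplantable tumors.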

## O=NN(CCCl)C(=O)NCCCl
dose: 0.65 mg/kg/injection, schedule: Q01DX Z (sc), vehicle: methylcellulose (MC)
  T/C: 115 % of control
dose: 0.75 mg/kg/injection, schedule: Q01DX009 (ip), vehicle: saline
  T/C: 110 % of control
dose: 1.08 mg/kg/injection, schedule: Q## X Z (sc), vehicle: methylcellulose (MC)
  T/C: 107 % of control
dose: 1.5 mg/kg/injection, schedule: Q01DX009 (ip), vehicle: saline
  T/C: 120 % of control
dose: 1.8 mg/kg/injection, schedule: Q01DX Z (sc), vehicle: methylcellulose (MC)
  T/C: 184 % of control
dose: 1.8 mg/kg/injection, schedule: Q07DX Z (sc), vehicle: methylcellulose (MC)
  T/C: 107 % of control
dose: 1.8 mg/kg/injection, schedule: Q## X Z (sc), vehicle: methylcellulose (MC)
  T/C: 115 % of control
dose: 3.0 mg/kg/injection, schedule: Q01DX001 (ip), vehicle: saline
  T/C: 119 % of control
dose: 3.0 mg/kg/injection, schedule: Q01DX001 (iv), vehicle: saline
  T/C: 123 % of control
dose: 3.0 mg/kg/injection, schedule: Q01DX009 (ip), vehicle: saline
  T/C: 190 % of control
dose: 3.0 mg/kg/injection, schedule: Q01DX Z (oral), vehicle: saline
  T/C: 205 % of control
dose: 3.0 mg/kg/injection, schedule: Q01DX Z (sc), vehicle: methylcellulose (MC)
  T/C: 223 % of control
dose: 3.0 mg/kg/injection, schedule: Q07DX Z (sc), vehicle: methylcellulose (MC)
  T/C: 115 % of control
dose: 3.0 mg/kg/injection, schedule: Q## X Z (sc), vehicle: methylcellulose (MC)
  T/C: 119 % of control
dose: 3.0 mg/kg/injection, schedule: Q## X Z (sc), vehicle: saline
  T/C: 123 % of control
dose: 5.0 mg/kg/injection, schedule: Q01DX001 (sc), vehicle: saline
  T/C: 115 % of control
dose: 5.0 mg/kg/injection, schedule: Q01DX Z (oral), vehicle: saline
  T/C: 521 % of control
dose: 5.0 mg/kg/injection, schedule: Q01DX Z (sc), vehicle: methylcellulose (MC)
  T/C: 200 % of control
dose: 5.0 mg/kg/injection, schedule: Q07DX Z (sc), vehicle: saline
  T/C: 120 % of control and 123 % of control
dose: 5.0 mg/kg/injection, schedule: Q## X Z (sc), vehicle: methylcellulose (MC)
  T/C: 173 % of control
dose: 6.0 mg/kg/injection, schedule: Q01DX009 (ip), vehicle: saline
  T/C: 210 % of control
dose: 8.4 mg/kg/injection, schedule: Q01DX001 (ip), vehicle: saline
  T/C: 233 % of control
dose: 8.4 mg/kg/injection, schedule: Q01DX001 (iv), vehicle: saline
  T/C: 247 % of control
dose: 8.4 mg/kg/injection, schedule: Q01DX Z (oral), vehicle: saline
  T/C: 284 % of control
dose: 8.4 mg/kg/injection, schedule: Q01DX Z (sc), vehicle: methylcellulose (MC)
  T/C: 188 % of control
dose: 8.4 mg/kg/injection, schedule: Q07DX Z (sc), vehicle: methylcellulose (MC)
  T/C: 161 % of control
dose: 8.4 mg/kg/injection, schedule: Q07DX Z (sc), vehicle: other
  T/C: 305 % of control
dose: 8.4 mg/kg/injection, schedule: Q07DX Z (sc), vehicle: saline
  T/C: 161 % of control and 210 % of control and 252 % of control
dose: 8.4 mg/kg/injection, schedule: Q16DX002 (ip), vehicle: saline
  T/C: 172 % of control
dose: 8.4 mg/kg/injection, schedule: Q## X Z (sc), vehicle: methylcellulose (MC)
  T/C: 250 % of control
dose: 8.4 mg/kg/injection, schedule: Q## X Z (sc), vehicle: saline
  T/C: 246 % of control
dose: 10.0 mg/kg/injection, schedule: Q01DX001 (sc), vehicle: methylcellulose (MC)
  T/C: 255 % of control
dose: 10.0 mg/kg/injection, schedule: Q01DX001 (sc), vehicle: saline
  T/C: 185 % of control
dose: 10.8 mg/kg/injection, schedule: Q01DX001 (ip), vehicle: saline
  T/C: 150 % of control
dose: 10.8 mg/kg/injection, schedule: Q01DX001 (sc), vehicle: saline
  T/C: 248 % of control and 250 % of control
dose: 10.8 mg/kg/injection, schedule: Q07DX003 (sc), vehicle: saline
  T/C: 274 % of control and 275 % of control
dose: 14.0 mg/kg/injection, schedule: Q01DX001 (iv), vehicle: saline
  T/C: 209 % of control
dose: 14.0 mg/kg/injection, schedule: Q01DX Z (oral), vehicle: saline
  T/C: 194 % of control
dose: 14.0 mg/kg/injection, schedule: Q01DX Z (sc), vehicle: saline
  T/C: 161 % of control and 273 % of control and 285 % of control
dose: 14.0 mg/kg/injection, schedule: Q01HX002 (ip), vehicle: saline
  T/C: 315 % of control
dose: 14.0 mg/kg/injection, schedule: Q07DX Z (sc), vehicle: methylcellulose (MC)
  T/C: 173 % of control
dose: 14.0 mg/kg/injection, schedule: Q07DX Z (sc), vehicle: other
  T/C: 88 % of control
dose: 14.0 mg/kg/injection, schedule: Q07DX Z (sc), vehicle: saline
  T/C: 200 % of control
dose: 14.0 mg/kg/injection, schedule: Q16DX002 (ip), vehicle: saline
  T/C: 315 % of control
dose: 14.0 mg/kg/injection, schedule: Q## X Z (sc), vehicle: methylcellulose (MC)
  T/C: 315 % of control
dose: 14.0 mg/kg/injection, schedule: Q## X Z (sc), vehicle: saline
  T/C: 315 % of control
dose: 18.0 mg/kg/injection, schedule: Q01DX001 (ip), vehicle: saline
  T/C: 181 % of control and 200 % of control
dose: 18.0 mg/kg/injection, schedule: Q01DX001 (sc), vehicle: saline
  T/C: 310 % of control and 352 % of control
dose: 18.0 mg/kg/injection, schedule: Q07DX003 (sc), vehicle: saline
  T/C: 645 % of control and 660 % of control
dose: 20.0 mg/kg/injection, schedule: Q01DX001 (sc), vehicle: methylcellulose (MC)
  T/C: 240 % of control
dose: 20.0 mg/kg/injection, schedule: Q01DX001 (sc), vehicle: saline
  T/C: 270 % of control
dose: 23.0 mg/kg/injection, schedule: Q01DX001 (ip), vehicle: saline
  T/C: 480 % of control
dose: 23.0 mg/kg/injection, schedule: Q01DX001 (iv), vehicle: saline
  T/C: 423 % of control
dose: 23.0 mg/kg/injection, schedule: Q01DX Z (oral), vehicle: saline
  T/C: 157 % of control
dose: 23.0 mg/kg/injection, schedule: Q01HX002 (ip), vehicle: saline
  T/C: 315 % of control
dose: 23.0 mg/kg/injection, schedule: Q07DX Z (sc), vehicle: methylcellulose (MC)
  T/C: 184 % of control
dose: 23.0 mg/kg/injection, schedule: Q07DX Z (sc), vehicle: other
  T/C: 555 % of control
dose: 23.0 mg/kg/injection, schedule: Q07DX Z (sc), vehicle: saline
  T/C: 438 % of control and 631 % of control and 645 % of control
dose: 23.0 mg/kg/injection, schedule: Q16DX002 (ip), vehicle: saline
  T/C: 315 % of control
dose: 23.0 mg/kg/injection, schedule: Q## X Z (sc), vehicle: saline
  T/C: 284 % of control
dose: 24.0 mg/kg/injection, schedule: Q01DX009 (ip), vehicle: saline
  T/C: 115 % of control
dose: 30.0 mg/kg/injection, schedule: Q01DX001 (ip), vehicle: saline
  T/C: 218 % of control and 483 % of control
dose: 30.0 mg/kg/injection, schedule: Q01DX001 (sc), vehicle: saline
  T/C: 410 % of control and 441 % of control
dose: 30.0 mg/kg/injection, schedule: Q07DX003 (sc), vehicle: saline
  T/C: 295 % of control and 303 % of control
dose: 39.0 mg/kg/injection, schedule: Q01DX001 (ip), vehicle: saline
  T/C: 309 % of control
dose: 39.0 mg/kg/injection, schedule: Q07DX Z (sc), vehicle: other
  T/C: 294 % of control
dose: 39.0 mg/kg/injection, schedule: Q07DX Z (sc), vehicle: saline
  T/C: 173 % of control and 315 % of control
dose: 40.0 mg/kg/injection, schedule: Q01DX001 (sc), vehicle: methylcellulose (MC)
  T/C: 230 % of control
dose: 40.0 mg/kg/injection, schedule: Q01DX001 (sc), vehicle: saline
  T/C: 195 % of control
dose: 48.0 mg/kg/injection, schedule: Q01DX001 (ip), vehicle: saline
  T/C: 292 % of control
dose: 50.0 mg/kg/injection, schedule: Q01DX001 (ip), vehicle: saline
  T/C: 475 % of control
dose: 50.0 mg/kg/injection, schedule: Q01DX001 (sc), vehicle: saline
  T/C: 205 % of control
dose: 60.0 mg/kg/injection, schedule: Q01DX001 (ip), vehicle: saline
  T/C: 124 % of control
dose: 65.0 mg/kg/injection, schedule: Q01DX001 (oral), vehicle: saline
  T/C: 114 % of control
dose: 65.0 mg/kg/injection, schedule: Q07DX Z (sc), vehicle: other
  T/C: 205 % of control
dose: 80.0 mg/kg/injection, schedule: Q01DX001 (sc), vehicle: methylcellulose (MC)
  T/C: 110 % of control
dose: 80.0 mg/kg/injection, schedule: Q01DX001 (sc), vehicle: saline
  T/C: 110 % of control
dose: 108.0 mg/kg/injection, schedule: Q01DX001 (oral), vehicle: saline
  T/C: 104 % of control
dose: 120.0 mg/kg/injection, schedule: Q01DX001 (sc), vehicle: methylcellulose (MC)
  T/C: 100 % of control
dose: 120.0 mg/kg/injection, schedule: Q01DX001 (sc), vehicle: saline
  T/C: 105 % of control
dose: 180.0 mg/kg/injection, schedule: Q01DX001 (oral), vehicle: saline
  T/C: 95 % of control

From PubChem BioAssay AID250 (DTP/NCI, 2004)
